Like-named read-outs stand apart in the source and are kept apart here.

One test deals with A549. Put plainly: In vitro antiproliferative activity, SRB assay, A549. As to conditions: for IC50: read-out: Antiproliferative activity IC50, A549. It is filed as cell-based, human. (In general: The SRB assay estimates cell density from bound dye.)
For a further test, the system named is MCF-7. The test is described as follows: In vitro antiproliferative activity, SRB assay, MCF-7. It is filed as cell-based, human. As to conditions: for IC50: read-out: Antiproliferative activity IC50, MCF-7.
A further test has as its system LoVo. Put plainly: In vitro antiproliferative activity, SRB assay, LoVo. It is filed as cell-based, human. The settings on record: for IC50: 72 h, read-out: Antiproliferative activity IC50, LoVo.
The subject of a further test is LoVo/DX. Put plainly: In vitro antiproliferative activity, SRB assay, doxorubicin-resistant LoVo/DX. It is filed as cell-based, human. The settings on record: for Resistance index (RI): RI = IC50 LoVo/DX / IC50 LoVo; for IC50: 72 h.
Another test concerns BALB/3T3. The test is described as follows: In vitro antiproliferative activity, SRB assay, normal fibroblasts BALB/3T3. Type of test: cell-based. As to conditions: normal murine embryonic fibroblast BALB/3T3, 72 h, mean ± SD.
For test [1], the system named is A549, MCF-7, LoVo, and LoVo/DX cells. Put plainly: In vitro antiproliferative activity, SRB assay, summary over the tumor cell lines tested. Type of test: cell-based. The settings on record: Homo sapiens, read-out: IC50, span over all tumor cell lines tested. The source says:
. Detailed information concerning antiproliferation assay can be found in Supplementary Materials. […]
neutralized with 4M NaOH to pH~10 and extracted four times with EtOAc. The organic layers were combined, washed with brine, dried over Na2SO4, filtered off and evaporated under reduced pressure. The residue was purified using column flash chromatography (silica gel; DCM/MeOH, 20/1 v/v) and next lyophilized from dioxane to give the pure product 3 as a yellow solid with a yield of 73%.
In vitro antiproliferative activity
Cell lines and culturing conditions
Four human cancer cell lines and one murine normal cell line were used to evaluate antiproliferative […]
adenocarcinoma (MCF-7), human colon adenocarcinoma cell lines sensitive and resistant to doxorubicin (LoVo) and (LoVo/DX) respectively, and normal murine embryonic fibroblast cell line (BALB/3T3). The A549 cell line was purchased from the European Collection of Authenticated Cell Cultures (ECACC, Salisbury, UK). The MCF-7, LoVo and LoVo/DX cell lines was purchased from American Type Culture Collection (ATCC, Manassas, VA, USA). All the cell lines are maintained in the Institute of Immunology and Experimental Therapy (IIET), Wroclaw, Poland. […]

Where [2] appears, read: Homo sapiens, LoVo/DX, read-out: Antiproliferative activity IC50, LoVo/DX, doxorubicin-resistant subline LoVo/DX, 72 h, SRB, mean ± SD.
[3] abbreviates: read-out: Antiproliferative activity IC50, LoVo/DX, doxorubicin-resistant subline LoVo/DX, SRB, mean ± SD.

As for `N.N.[Cl][Pt][Cl]` [Cisplatin, cisplatin, reference compound], the IC50 was 4920 ± 1850 nM in the test on A549 (human lung adenocarcinoma A549, 72 h, SRB, mean ± SD); 5810 ± 2610 nM in the test with MCF-7 (human breast adenocarcinoma MCF-7, 72 h, SRB, mean ± SD); 5460 ± 1410 nM with LoVo (human colon adenocarcinoma LoVo, SRB, mean ± SD); 5010 ± 1560 nM in the test on LoVo/DX (doxorubicin-resistant subline LoVo/DX, SRB, mean ± SD, read-out: Antiproliferative activity IC50, LoVo/DX); 3970 ± 995 nM in the test with BALB/3T3. Moreover, in the test with LoVo/DX, the “Resistance index (RI)” value stood at 0.9.

Turning to `CNc1ccc2c(cc1=O)C(NC(C)=O)CCc1cc(OC)c(OC)c(OC)c1-2` (stereo not shown) [Compound 2, 10-N-methylaminocolchicine], the IC50 in the test with A549 (Homo sapiens, A549, 72 h) stood at 7.2 ± 1.3 nM; in the test on LoVo (Homo sapiens, LoVo) it was 1.2 ± 0.2 nM.

Take `CNc1ccc2c(cc1=O)[C@@H](N)CCc1cc(OC)c(OC)c(OC)c1-2` [Compound 3, N-deacetyl-10-methylamino-10-demethoxycolchicine]: the IC50 stood at 8.6 ± 3.9 nM with A549 (Homo sapiens, A549, 72 h); 9.8 ± 4.5 nM with MCF-7 (Homo sapiens, MCF7, 72 h); 7.4 ± 2.7 nM in the test with LoVo (Homo sapiens, LoVo).

Turning to `CCN[C@H]1CCc2cc(OC)c(OC)c(OC)c2-c2ccc(NC)c(=O)cc21` [Compound 4], the IC50 in the test with A549 (Homo sapiens, A549, 72 h) amounted to 9.4 ± 3.2 nM; in the test with MCF-7 (Homo sapiens, MCF7, 72 h), 8.7 ± 3.3 nM; in the test on LoVo (Homo sapiens, LoVo), 7.3 ± 2.5 nM; in the test on LoVo/DX (setting [2]) it was 62 ± 7.5 nM. Further, in the test on LoVo/DX, the “Resistance index (RI)” value is 8.5.

For `CCCN[C@H]1CCc2cc(OC)c(OC)c(OC)c2-c2ccc(NC)c(=O)cc21` [Compound 5], the IC50 was 10.5 ± 0.7 nM in the test with A549 (Homo sapiens, A549, 72 h); 10.4 ± 0.6 nM in the test on MCF-7 (Homo sapiens, MCF7, 72 h); 5 ± 0.1 nM in the test on LoVo (Homo sapiens, LoVo); 17.2 ± 6.7 nM with LoVo/DX (setting [2]). For the same compound, the “Resistance index (RI)” value in the test with LoVo/DX is recorded as 3.5.

As for `CCCCN[C@H]1CCc2cc(OC)c(OC)c(OC)c2-c2ccc(NC)c(=O)cc21` [Compound 6], the IC50 turned out to be 8.1 ± 2.6 nM in the test on A549 (Homo sapiens, A549, 72 h); 8.7 ± 3.1 nM with MCF-7 (Homo sapiens, MCF7, 72 h); 7.8 ± 1.3 nM in the test with LoVo (Homo sapiens, LoVo); 13.3 ± 5.8 nM in the test with LoVo/DX (setting [2]). The “Resistance index (RI)” value in the test with LoVo/DX worked out at 1.7.

Consider `CCCCCCCCCCN[C@H]1CCc2cc(OC)c(OC)c(OC)c2-c2ccc(NC)c(=O)cc21` [Compound 7], for which the IC50 in the test on A549 (Homo sapiens, A549, 72 h) amounted to 88.4 ± 3.2 nM; with MCF-7 (Homo sapiens, MCF7, 72 h), 75.2 ± 10.8 nM; in the test with LoVo (Homo sapiens, LoVo), 46.6 ± 15.5 nM; in the test on LoVo/DX (setting [2]), 99.5 ± 35.5 nM. The “Resistance index (RI)” value with LoVo/DX is 2.1.

Regarding `CNc1ccc2c(cc1=O)[C@@H](NCC(C)C)CCc1cc(OC)c(OC)c(OC)c1-2` [Compound 8], the IC50 was 9.6 ± 1.3 nM in the test on A549 (Homo sapiens, A549, 72 h); 9.7 ± 1.5 nM in the test on MCF-7 (Homo sapiens, MCF7, 72 h); 7.8 ± 1 nM in the test with LoVo (Homo sapiens, LoVo); no more than 10 nM in the test on LoVo/DX (setting [2]); 8.5 ± 1.1 nM in the test on LoVo/DX (setting [3]). In addition, the “Resistance index (RI)” value in the test with LoVo/DX turned out to be 1.1.

Turning to `CNc1ccc2c(cc1=O)[C@@H](NCCO)CCc1cc(OC)c(OC)c(OC)c1-2` [Compound 9], the IC50 in the test on A549 (Homo sapiens, A549, 72 h) is 9.2 ± 2.2 nM; with MCF-7 (Homo sapiens, MCF7, 72 h), 10.1 ± 1.2 nM; with LoVo (Homo sapiens, LoVo) it was 5.6 ± 1.5 nM; with LoVo/DX (setting [2]), 132 ± 37.5 nM. Further, in the test on LoVo/DX, the “Resistance index (RI)” value was 23.6.

As to `CNc1ccc2c(cc1=O)[C@@H](NCCC#N)CCc1cc(OC)c(OC)c(OC)c1-2` [Compound 10], the IC50 in the test on A549 (Homo sapiens, A549, 72 h) is 9 ± 1 nM; in the test on MCF-7 (Homo sapiens, MCF7, 72 h) it was 7.5 ± 0.7 nM; with LoVo (Homo sapiens, LoVo), 2 ± 0.6 nM; in the test on LoVo/DX (setting [2]), 51.5 ± 8.6 nM. For the same compound, the “Resistance index (RI)” value in the test with LoVo/DX was found to be 25.9.

For `CNc1ccc2c(cc1=O)[C@@H](NCCCCl)CCc1cc(OC)c(OC)c(OC)c1-2` [Compound 11], the IC50 in the test on A549 (Homo sapiens, A549, 72 h) turned out to be 8.4 ± 2.2 nM; with MCF-7 (Homo sapiens, MCF7, 72 h), 7.6 ± 2.8 nM; in the test with LoVo (Homo sapiens, LoVo), 1.3 ± 0.3 nM; in the test on LoVo/DX (setting [2]), 12.8 ± 3.3 nM. Further, the “Resistance index (RI)” value in the test with LoVo/DX stood at 10.0.

`CNc1ccc2c(cc1=O)[C@@H](NCCC(F)(F)F)CCc1cc(OC)c(OC)c(OC)c1-2` [Compound 12]: the IC50 with A549 (Homo sapiens, A549, 72 h) is 9.5 ± 0.2 nM; with MCF-7 (Homo sapiens, MCF7, 72 h), 9 ± 1.7 nM; with LoVo (Homo sapiens, LoVo) it was 2.3 ± 1.3 nM; in the test on LoVo/DX (setting [2]) it was 8.2 ± 0.6 nM. In the test on LoVo/DX, the “Resistance index (RI)” value was determined as 3.6.

Consider `CNc1ccc2c(cc1=O)[C@@H](NCc1ccccc1)CCc1cc(OC)c(OC)c(OC)c1-2` [Compound 13], for which the IC50 with A549 (Homo sapiens, A549, 72 h) was determined as 4.6 ± 1.8 nM; in the test on MCF-7 (Homo sapiens, MCF7, 72 h) it was 7.3 ± 4.4 nM; in the test with LoVo (Homo sapiens, LoVo), 0.9 ± 0.4 nM; in the test with LoVo/DX (setting [2]) it was 6 ± 0.8 nM. Further, the “Resistance index (RI)” value in the test on LoVo/DX was found to be 7.0.

As to `CNc1ccc2c(cc1=O)[C@@H](NCc1ccccc1Cl)CCc1cc(OC)c(OC)c(OC)c1-2` [Compound 14, N-(2-chlorobenzyl)-10-methylaminocolchicine], the IC50 in the test on A549 (Homo sapiens, A549, 72 h) was 1.1 ± 0.7 nM; in the test on MCF-7 (Homo sapiens, MCF7, 72 h) it was 0.7 ± 0.4 nM; in the test with LoVo (Homo sapiens, LoVo) it was 0.1 ± 0.02 nM; in the test on LoVo/DX (setting [2]), 1.6 ± 1 nM; in test [1] it was 0.1 to 1.6 nM. In addition, in the test with A549 (SI = IC50 BALB/3T3 / IC50 A549), the “Selectivity index (SI), A549” value stood at 4.1. Besides, in the test with MCF-7 (SI = IC50 BALB/3T3 / IC50 MCF-7), the “Selectivity index (SI), MCF-7” value was 6.1. For the same compound, the “Selectivity index (SI), LoVo/DX” value with LoVo/DX (SI = IC50 BALB/3T3 / IC50 LoVo/DX) worked out at 2.8. Moreover, the “Potency relative to unmodified colchicine 1, LoVo/DX” value in the test on LoVo/DX (times more potent than 1 towards LoVo/DX) is given as “approx. 440 times”.

Turning to `CNc1ccc2c(cc1=O)[C@@H](NCc1ccc(O)cc1)CCc1cc(OC)c(OC)c(OC)c1-2` [Compound 15], the IC50 in the test with A549 (Homo sapiens, A549, 72 h) came out at 8.9 ± 1.4 nM; in the test with MCF-7 (Homo sapiens, MCF7, 72 h) it was 8.5 ± 0.9 nM; with LoVo (Homo sapiens, LoVo), 5.2 ± 0.5 nM; with LoVo/DX (setting [2]), 72.2 ± 12.5 nM. Besides, the “Resistance index (RI)” value in the test on LoVo/DX was found to be 13.9.

For the compound `CNc1ccc2c(cc1=O)[C@@H](NCc1ccncc1)CCc1cc(OC)c(OC)c(OC)c1-2` [Compound 16], the IC50 stood at 8.9 ± 1.7 nM in the test with A549 (Homo sapiens, A549, 72 h); 9.6 ± 1.8 nM in the test on MCF-7 (Homo sapiens, MCF7, 72 h); 5.2 ± 1.9 nM in the test on LoVo (Homo sapiens, LoVo); 48.1 ± 14.5 nM in the test with LoVo/DX (setting [2]). The “Resistance index (RI)” value with LoVo/DX is on record as 9.3.

Consider `CNc1ccc2c(cc1=O)[C@@H](NCc1cccs1)CCc1cc(OC)c(OC)c(OC)c1-2` [Compound 17], for which the IC50 in the test on A549 (Homo sapiens, A549, 72 h) was 9.4 ± 0.5 nM; in the test with MCF-7 (Homo sapiens, MCF7, 72 h), 9.3 ± 0.6 nM; in the test with LoVo (Homo sapiens, LoVo) it was 0.9 ± 0.3 nM; in the test with LoVo/DX (setting [2]) it was no more than 10 nM; in the test with LoVo/DX (setting [3]), 7.9 ± 1 nM. For the same compound, the “Selectivity index (SI), LoVo” value in the test with LoVo (SI = IC50 BALB/3T3 / IC50 LoVo) is given as greater than 3. Moreover, the “Resistance index (RI)” value in the test with LoVo/DX was 8.9.

For the origin of these results see PMC7435877 (Molecules, 2020).
